Assay [1] deals with SARS-CoV-2 M^pro-N (N-terminal domain with the catalytic core) (Severe acute respiratory syndrome coronavirus 2, UniProt P0DTD1). The class given is binding. The following applies: catalytic pocket, probably more than one site.
The target in assay [2] is SARS-CoV-2 M^pro (main protease, 3CL^pro), full-length (Severe acute respiratory syndrome coronavirus 2, UniProt P0DTD1). As to the kind of experiment: fluorescent peptide cleavage assay, two doses. The class given is biochemical. The following applies: unreliable; estimated from two doses; limited by low aqueous solubility.

For the compound `O=C(O)c1cccnc1` [niacin], in assay [1], the “1H-15N HSQC chemical shift perturbation” value is “niacin perturbs H41, G143, N51, and V186”.
As to `CSc1nc2cc(Cl)c(Oc3cccc(Cl)c3Cl)cc2[nH]1` [triclabendazole], in assay [2], the IC50 was ~ 70 μM.

The values are drawn from doi:10.1101/2020.05.05.079848v2 (biorxiv, 2020).
